Test results published in paper PMC5951806, “Rapid labelling and covalent inhibition of intracellular native proteins using ligand-directed N-acyl-N-alkyl sulfonamide” (Nature Communications, 2018).

Experiments:
[1] = molecular target: Isoform 2 of Glucose-6-phosphate isomerase (GPI) (Homo sapiens, UniProt P06744); assay: TMT LC-MSMS of 11-labelled proteins; format: cell-based
From the text: (§1) Supplement 41467_2018_4343_MOESM4_ESM.xlsx, sheet "Exp2" | column: Abundance Ratio: (11) / (11 with PU-H71); Abundance Ratio: (11) / (DMSO); Abundances (Grouped): 11; Abundances (Grouped): 11 with PU-H71

[2] = molecular target: Dolichyl-diphosphooligosaccharide--protein glycosyltransferase 48 kDa subunit (DDOST) (Homo sapiens, UniProt P39656); assay: TMT LC-MSMS of 11-labelled proteins; format: cell-based
Dolichyl-diphosphooligosaccharide--protein glycosyltransferase 48 kDa subunit (DDOST), sequence (P39656 43-456): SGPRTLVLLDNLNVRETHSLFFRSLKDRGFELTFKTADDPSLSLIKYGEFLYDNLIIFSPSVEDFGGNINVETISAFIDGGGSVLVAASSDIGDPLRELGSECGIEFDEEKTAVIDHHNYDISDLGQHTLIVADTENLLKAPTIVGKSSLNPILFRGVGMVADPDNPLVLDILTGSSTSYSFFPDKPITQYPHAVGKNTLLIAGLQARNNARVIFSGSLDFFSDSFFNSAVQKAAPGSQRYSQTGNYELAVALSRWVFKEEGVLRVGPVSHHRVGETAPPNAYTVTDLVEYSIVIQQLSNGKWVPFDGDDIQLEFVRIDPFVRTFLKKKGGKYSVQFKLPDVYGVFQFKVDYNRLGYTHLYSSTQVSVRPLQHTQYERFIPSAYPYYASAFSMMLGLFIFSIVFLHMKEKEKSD
Dolichyl-diphosphooligosaccharide--protein glycosyltransferase 48 kDa subunit (DDOST), sequence (P04843 24-607 partner): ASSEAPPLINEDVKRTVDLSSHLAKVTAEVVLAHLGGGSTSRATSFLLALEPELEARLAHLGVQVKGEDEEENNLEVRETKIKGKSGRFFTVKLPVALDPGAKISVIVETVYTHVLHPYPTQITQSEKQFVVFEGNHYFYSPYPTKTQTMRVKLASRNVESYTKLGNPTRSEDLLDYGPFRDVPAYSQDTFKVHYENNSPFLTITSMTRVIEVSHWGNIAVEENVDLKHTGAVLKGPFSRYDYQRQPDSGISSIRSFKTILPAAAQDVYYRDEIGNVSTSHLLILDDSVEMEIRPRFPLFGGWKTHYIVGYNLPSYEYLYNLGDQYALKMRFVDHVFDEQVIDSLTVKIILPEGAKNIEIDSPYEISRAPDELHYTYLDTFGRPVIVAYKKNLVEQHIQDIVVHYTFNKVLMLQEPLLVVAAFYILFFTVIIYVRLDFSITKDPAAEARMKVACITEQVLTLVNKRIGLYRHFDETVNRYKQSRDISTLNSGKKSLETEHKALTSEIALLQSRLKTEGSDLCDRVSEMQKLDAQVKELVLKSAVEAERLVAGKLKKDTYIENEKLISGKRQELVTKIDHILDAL
Dolichyl-diphosphooligosaccharide--protein glycosyltransferase 48 kDa subunit (DDOST), sequence (P04844 23-631 partner): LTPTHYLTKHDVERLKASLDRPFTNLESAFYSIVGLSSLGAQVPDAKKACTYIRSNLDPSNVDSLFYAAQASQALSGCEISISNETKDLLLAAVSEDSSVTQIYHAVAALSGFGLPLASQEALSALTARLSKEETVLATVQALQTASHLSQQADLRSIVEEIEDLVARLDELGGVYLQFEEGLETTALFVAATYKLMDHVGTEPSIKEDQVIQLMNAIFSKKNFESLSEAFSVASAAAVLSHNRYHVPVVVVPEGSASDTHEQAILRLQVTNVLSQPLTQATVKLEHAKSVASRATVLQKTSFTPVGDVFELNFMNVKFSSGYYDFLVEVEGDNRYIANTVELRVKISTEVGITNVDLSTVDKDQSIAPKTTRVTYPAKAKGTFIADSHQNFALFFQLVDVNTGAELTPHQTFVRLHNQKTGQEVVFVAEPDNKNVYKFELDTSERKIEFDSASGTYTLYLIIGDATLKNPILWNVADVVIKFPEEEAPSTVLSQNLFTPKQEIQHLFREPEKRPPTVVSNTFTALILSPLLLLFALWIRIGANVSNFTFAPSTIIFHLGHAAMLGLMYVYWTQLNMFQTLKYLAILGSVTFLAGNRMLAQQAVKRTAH
Dolichyl-diphosphooligosaccharide--protein glycosyltransferase 48 kDa subunit (DDOST), sequence (P61803 whole entry partner): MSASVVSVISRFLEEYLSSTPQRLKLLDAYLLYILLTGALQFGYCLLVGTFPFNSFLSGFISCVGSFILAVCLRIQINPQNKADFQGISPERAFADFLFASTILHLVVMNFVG
Dolichyl-diphosphooligosaccharide--protein glycosyltransferase 48 kDa subunit (DDOST), sequence (P61165 whole entry partner): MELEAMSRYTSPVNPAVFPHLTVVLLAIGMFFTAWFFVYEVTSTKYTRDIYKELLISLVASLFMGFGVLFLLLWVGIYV
Dolichyl-diphosphooligosaccharide--protein glycosyltransferase 48 kDa subunit (DDOST), sequence (P0C6T2 whole entry partner): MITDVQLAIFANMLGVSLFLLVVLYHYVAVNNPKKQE
From the text: as §1

[3] = system: Isoform 2 of Transketolase (TKT); assay: TMT LC-MSMS of 11-labelled proteins; format: cell-based, Homo sapiens
From the text: (§2) The labelled proteins were enriched by immunoprecipitation with an anti-fluorescein antibody and tryptically digested in gel. Digested peptides were modified with Light- (L-), Medium- (M-), or Heavy- (H-) TMT reagent for samples treated with 11, 11 with PU-H71 (as competitive condition), or DMSO (vehicle), respectively, and mixed in a 1:1:1 ratio for LC-MSMS analysis. We performed three experimental replicates, in which proteins detected and quantified at least twice were selected as identified proteins. According to the related approach of Cravatt et al[44], the proteins having L/H (11/DMSO) ratios >5 were defined as 11-labelled proteins. […] On the basis of these criteria, we identified 6 proteins that react with 11, including three ligand-specific targets (Hsp90α (HSP90AA1), Hsp90β (HSP90AB1), and Grp94 (HSP90B1)) and three off-targets (Trifunctional enzyme subunit α (HADHA), Tubulin-α (TUBA1B), and ADP/ATP translocase 3 (SLC25A6)) (Fig. 5d, e and Supplementary Data 1). […] Grp94, a HSP90 isomer, was previously reported to be a PU-H71 specific target. TRAP-1, another Hsp90 isomer that can bind PU-H71, on the other hand, was not identified as 11-target by our criteria.
(§3) SKBR3 human breast cancer cells (2.0 × 10^6 cells) were seeded on a 10 cm dish and cultured for 3 days in McCoy’s 5A in a 5% CO2 humidified chamber at 37 °C. […] As competitive experiments, the labelling was conducted in the presence of PU-H71 (10 µM). After labelling, the cells were washed twice with PBS, and lysed with RIPA buffer. […] The supernatant was mixed with chilled acetone and incubated overnight at −80 °C. The protein precipitates were solubilized by sonication in 1 mL of RIPA buffer containing 1% SDS, and then 10-fold diluted with RIPA buffer to reduce SDS concentration to c.a. 0.1%. The protein solution (containing 1 mg of protein) was mixed with Protein G Sepharose 4 Fast Flow (GE Healthcare) and rotated at 4 °C for 1 h. After removal of the beads, the remaining supernatant was mixed with anti-fluorescein antibody (Abcam, ab19491, 7:10000) and rotated at 4 °C for 1 h, followed by addition of fresh Protein G Sepharose 4 Fast Flow and further incubation at 4 °C for 4 h. The beads were washed five times with RIPA buffer and once with PBS. Proteins were eluted from the beads by addition of 2 × sample buffer containing 100 mM DTT and boiling at 95 °C for 5 min. The samples were subjected to a 7.5% SDS–PAGE gel (Mini-PROTEAN TGX Gels, BioRad), and electrophoresed as the migration distance of dye front is about 10 mm. Each lane was excised (height, 10 mm), and treated with a 47.5% methanol / 47.5% pure water / 5% acetic acid for 20 min, a 50% methanol / 50% pure water for 10 min, and in pure water for 10 min. The gel pieces were dehydrated with 100% acetonitrile, and then swelled with 200 μL of 100 mM TEAB (triethylamine bicarbonate) buffer containing 10 mM DTT and heated at 56 °C for 30 min. The solutions were replaced with 200 µL of 100 mM TEAB buffer containing 55 mM iodoacetamide and incubated for 45 min in the dark. The gel pieces were washed with 100 mM TEAB buffer and dehydrated in acetonitrile. This step was repeated once. The gels were reswelled in 100 mM TEAB buffer containing 10 ng/μL Sequencing Grade Trypsin (Promega) and incubated overnight at 37 °C. To the gels, 50 μL of an extraction solution (50% acetonitrile, 0.1% TFA) was added. After 10 min incubation, the supernatants were collected to new tubes, and this process was repeated twice. Extracted peptides were dried in vacuo and reconstituted with 25 μL of 100 mM TEAB buffer.

[4] = system: Isoform 4 of 4F2 cell-surface antigen heavy chain (SLC3A2); assay: TMT LC-MSMS of 11-labelled proteins; format: cell-based, Homo sapiens
From the text: as §2, §3

[5] = system: Isoform Long of Glucose-6-phosphate 1-dehydrogenase (G6PD); assay: TMT LC-MSMS of 11-labelled proteins; format: cell-based, Homo sapiens
From the text: as §2, §3

[6] = system: immunoglobulin gamma-1 heavy chain; assay: TMT LC-MSMS of 11-labelled proteins; format: cell-based, Homo sapiens
From the text: as §1

proteins of SKBR3 cells = assay: Identification of 11-labelled proteins in live cells (TMT quantitative LC-MSMS), all proteins; format: cell-based, human; settings: 0.5 µM, 3 h, three ligand-specific targets and three off-targets
From the text: as §2
SKBR3 human breast cancer cells (2.0 × 10^6 cells) were seeded on a 10 cm dish and cultured for 3 days in McCoy’s 5A in a 5% CO2 humidified chamber at 37 °C. […]

endogenous Hsp90 = assay: Chemical labelling of endogenous Hsp90 in SKBR3 cells (in-gel fluorescence); format: cell-based, human; settings: 3 h
[7] = sheet Exp1, SKBR3 cells, 11 0.5 µM 3 h vs DMSO
[8] = sheet Exp1, SKBR3 cells, 11 0.5 µM 3 h vs with PU-H71 10 µM
[9] = sheet Merged, SKBR3 cells, 11 0.5 µM 3 h vs DMSO
[10] = sheet Merged, SKBR3 cells, 11 0.5 µM 3 h vs with PU-H71 10 µM

CC(=O)Oc1ccc2c(c1)Oc1cc(OC(C)=O)ccc1C21OC(=O)c2cc(C(=O)NCCOCCOCCNC(=O)CCCC(=O)N(CC#N)S(=O)(=O)c3ccc(C(=O)NCCCn4c(Sc5cc6c(cc5I)OCO6)nc5c(N)ncnc54)cc3)ccc21 [compound 11]
Abundance Ratio: (11) / (11 with PU-H71) ([1]; sheet Exp2): 0.768
Abundance Ratio: (11) / (DMSO) ([1]; sheet Exp2): 2.545
Abundances (Grouped): 11 ([1]; sheet Exp2): 34.1
Abundances (Grouped): 11 with PU-H71 ([1]; sheet Exp2, with PU-H71): 44.4
Abundance Ratio: (11) / (11 with PU-H71) ([2]; sheet Exp2): 0.942
Abundance Ratio: (11) / (DMSO) ([2]; sheet Exp2): 2.044
Abundances (Grouped): 11 ([2]; sheet Exp2): 37.4
Abundances (Grouped): 11 with PU-H71 ([2]; sheet Exp2, with PU-H71): 39.7
Abundance Ratio: (11) / (11 with PU-H71) ([3]; Exp3, TKT): 0.724
Abundance Ratio: (11) / (DMSO) ([3]; Exp3, TKT): 1.695
Abundances (Grouped): 11 ([3]; Exp3, TKT): 45.6
Abundances (Grouped): 11 with PU-H71 ([3]; Exp3, TKT): 63
Abundance Ratio: (11) / (DMSO) [3, 7]: 2.131
Abundance Ratio: (11) / (11 with PU-H71) [3, 8]: 0.917
Abundance Ratio: (11) / (11 with PU-H71) ([3]; sheet Exp2, TKT): 0.939
Abundance Ratio: (11) / (DMSO) ([3]; sheet Exp2, TKT): 2.163
Abundances (Grouped): 11 ([3]; sheet Exp2, TKT): 103.4
Abundances (Grouped): 11 with PU-H71 ([3]; sheet Exp2, TKT): 110.1
Abundance Ratio: (11) / (DMSO) [3, 9]: 2.131
Abundance Ratio: (11) / (11 with PU-H71) [3, 10]: 0.917
Abundance Ratio: (11) / (11 with PU-H71) ([4]; Exp3, SLC3A2): 0.823
Abundance Ratio: (11) / (DMSO) ([4]; Exp3, SLC3A2): 3.728
Abundances (Grouped): 11 ([4]; Exp3, SLC3A2): 115.2
Abundances (Grouped): 11 with PU-H71 ([4]; Exp3, SLC3A2): 140
Abundance Ratio: (11) / (DMSO) [4, 7]: 3.951
Abundance Ratio: (11) / (11 with PU-H71) [4, 8]: 0.737
Abundance Ratio: (11) / (11 with PU-H71) ([4]; sheet Exp2, SLC3A2): 0.802
Abundance Ratio: (11) / (DMSO) ([4]; sheet Exp2, SLC3A2): 3.119
Abundances (Grouped): 11 ([4]; sheet Exp2, SLC3A2): 91.7
Abundances (Grouped): 11 with PU-H71 ([4]; sheet Exp2, SLC3A2): 114.4
Abundance Ratio: (11) / (DMSO) [4, 9]: 3.119
Abundance Ratio: (11) / (11 with PU-H71) [4, 10]: 0.802
Abundance Ratio: (11) / (DMSO) [5, 7]: 6.472
Abundance Ratio: (11) / (11 with PU-H71) [5, 8]: 0.948
Abundance Ratio: (11) / (11 with PU-H71) ([5]; sheet Exp2, G6PD): 0.848
Abundance Ratio: (11) / (DMSO) ([5]; sheet Exp2, G6PD): 1.663
Abundances (Grouped): 11 ([5]; sheet Exp2, G6PD): 63.2
Abundances (Grouped): 11 with PU-H71 ([5]; sheet Exp2, G6PD, with PU-H71): 74.5
Abundance Ratio: (11) / (DMSO) [5, 9]: 3.281
Abundance Ratio: (11) / (11 with PU-H71) [5, 10]: 0.897
Abundance Ratio: (11) / (11 with PU-H71) ([6]; sheet Exp2): 0.821
Abundance Ratio: (11) / (DMSO) ([6]; sheet Exp2): 0.807
Abundances (Grouped): 11 ([6]; sheet Exp2): 7483.9
Abundances (Grouped): 11 with PU-H71 ([6]; sheet Exp2, with PU-H71): 9110.6
number of proteins that react with 11 (L/H ratios >5) (proteins of SKBR3 cells): 6
unspecific reaction at high concentrations (endogenous Hsp90; 1–10 µM, 37 °C): No increase in unspecific
endogenous Hsp90 labelling (endogenous Hsp90; up to ~10 µM): labelled endogenous Hsp90 (both α and β isoforms)
